Assays:
Conditions in all cases: saturating DL-infraluciferin (DL-iLH2) as co-substrate
[1] = molecular target: WT Fluc (Photinus pyralis firefly luciferase, Ppy Fluc) (Photinus pyralis, UniProt P08659, E354R/D357Y)
[2] = test system: T1, Eluc; experiment: bioluminescence, ATP […] to […], Hanes-Woolf plot; format: biochemical, Pyrearinus termitilluminans
T1 construct: 10X N-terminal His tag, pET16b, E. coli BL21(DE3) pLysS, Ni-NTA purified; amplified from plasmid pLR6-Eluc

[3] = molecular target: WT Fluc (Photinus pyralis firefly luciferase, Ppy Fluc) (Photinus pyralis, UniProt P08659)
Chain of WT Fluc (Photinus pyralis firefly luciferase, Ppy Fluc) (Photinus pyralis, UniProt P08659) (P08659 whole entry): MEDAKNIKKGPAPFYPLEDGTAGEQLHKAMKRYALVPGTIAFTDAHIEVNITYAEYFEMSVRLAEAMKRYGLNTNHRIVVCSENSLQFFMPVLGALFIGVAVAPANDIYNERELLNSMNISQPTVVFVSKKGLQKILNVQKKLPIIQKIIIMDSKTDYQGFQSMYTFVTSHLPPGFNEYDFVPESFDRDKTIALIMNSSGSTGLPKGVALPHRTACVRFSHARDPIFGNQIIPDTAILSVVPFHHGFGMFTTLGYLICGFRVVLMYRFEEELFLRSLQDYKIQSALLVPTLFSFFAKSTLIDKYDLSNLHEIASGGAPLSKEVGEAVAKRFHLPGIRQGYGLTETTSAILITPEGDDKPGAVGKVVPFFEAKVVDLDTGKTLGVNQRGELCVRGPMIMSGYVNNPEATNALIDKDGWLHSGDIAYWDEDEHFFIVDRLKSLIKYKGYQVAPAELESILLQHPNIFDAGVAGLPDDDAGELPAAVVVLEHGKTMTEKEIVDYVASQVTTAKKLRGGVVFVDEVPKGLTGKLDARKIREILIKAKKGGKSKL

Chain of WT Fluc (Photinus pyralis firefly luciferase, Ppy Fluc) (Photinus pyralis, UniProt P08659, E354R/D357Y) (P08659 whole entry E354R/D357Y): as the sequence (P08659 whole entry) above, with E354R, D357Y counted along it

**Q.** Which Km [1] does the source give for `Nc1ncnc2c1ncn2[C@@H]1O[C@H](COP(=O)(O)OP(=O)(O)OP(=O)(O)O)[C@@H](O)[C@H]1O` [ATP] here?
**A.** Kms for ATP in the presence of DL-iLH2 (ATP(iLH2))

**Q.** And the Km [2]?
**A.** 200 µM

**Q.** And the Km [3]?
**A.** 160 µM

Source: paper PMC9459109, “A higher spectral range of beetle bioluminescence with infraluciferin” (Frontiers in Bioengineering and Biotechnology, 2022)
